“And” between values parts separate entries of the source, which are not always exact repeats. Equal entries are not always repeated.
Tested on: 743489-274-T-PDC complex spheroid growth
Test: Anticancer human tumor 743489-274-T-PDC patient-derived renal cell carcinoma cell line growth inhibition [AhR]
Conditions: for viability, T/C: stronger effect = lower value
Procedure, shortened: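 Agents were dosed in half-log steps down from roughly clinical Cmax, or from 10 microM where Cmax was unknown, alone and with AhR antagonists. Read-out: percent test/control growth of tumor spheroids containing HUVEC and MSC stromal cells.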

[1] = curve of first compound, second compound 0.1 µM
[2] = curve of first compound, second compound 0.316 µM
[3] = curve of first compound, second compound 1 µM
[4] = curve of first compound, second compound 3.16 µM
[5] = curve of first compound, second compound 10 µM
[6] = second compound 0.1 µM, first compound 0.0316 µM
[7] = second compound 0.1 µM, first compound 0.1 µM
[8] = second compound 0.1 µM, first compound 0.316 µM
[9] = second compound 0.1 µM, first compound 1 µM
[10] = second compound 0.1 µM, first compound 3.16 µM
[11] = second compound 0.1 µM, first compound 10 µM
[12] = second compound 0.316 µM, first compound 0.0316 µM
[13] = second compound 0.316 µM, first compound 0.1 µM
[14] = second compound 0.316 µM, first compound 0.316 µM
[15] = second compound 0.316 µM, first compound 1 µM
[16] = second compound 0.316 µM, first compound 3.16 µM
[17] = second compound 0.316 µM, first compound 10 µM
[18] = second compound 1 µM, first compound 0.0316 µM
[19] = second compound 1 µM, first compound 0.1 µM
[20] = second compound 1 µM, first compound 0.316 µM
[21] = second compound 1 µM, first compound 1 µM
[22] = second compound 1 µM, first compound 3.16 µM
[23] = second compound 1 µM, first compound 10 µM
[24] = second compound 3.16 µM, first compound 0.0316 µM
[25] = second compound 3.16 µM, first compound 0.1 µM
[26] = second compound 3.16 µM, first compound 0.316 µM
[27] = second compound 3.16 µM, first compound 1 µM
[28] = second compound 3.16 µM, first compound 3.16 µM
[29] = second compound 3.16 µM, first compound 10 µM
[30] = second compound 10 µM, first compound 0.0316 µM
[31] = second compound 10 µM, first compound 0.1 µM
[32] = second compound 10 µM, first compound 0.316 µM
[33] = second compound 10 µM, first compound 1 µM
[34] = second compound 10 µM, first compound 3.16 µM
[35] = second compound 10 µM, first compound 10 µM
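Further: spheroids exposed to agents for 7 days before readout.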
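Wherever viability, T/C is given: 100% = DMSO vehicle control wells.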

IC50 [1] [µM] | IC50 [2] [µM] | IC50 [3] [µM] | IC50 [4] [µM] | IC50 [5] [µM] | SMILES | viability, T/C [6] [%] | viability, T/C [7] [%] | viability, T/C [8] [%] | viability, T/C [9] [%] | viability, T/C [12] [%] | viability, T/C [13] [%] | viability, T/C [14] [%] | viability, T/C [15] [%] | viability, T/C [18] [%] | viability, T/C [19] [%] | viability, T/C [20] [%] | viability, T/C [21] [%] | viability, T/C [24] [%] | viability, T/C [25] [%] | viability, T/C [26] [%] | further results
3.86 | 3.13 | 2.82 | 4.55 | > 10 | COc1ccc([C@@H](O)c2cc(-c3ncnc4cc(N5CCOCC5)ccc34)c(F)cc2Cl)nn1 + Cc1cncc(-c2nc(NCCc3c[nH]c4ccccc34)c3ncn(C(C)C)c3n2)c1 | 95.3 | 98.9 | 90.3 | 98.1 | 94.2 | 94.6 | 88.4 | 82.8 | 99.5 | 95 | 93.2 | 84.7 | 112 | 118 | 102 | viability, T/C [10]: 52.9%; viability, T/C [11]: 36.1%; viability, T/C [16]: 49.4%; viability, T/C [17]: 29.4%; viability, T/C [22]: 46%; viability, T/C [23]: 35.5%; viability, T/C [27]: 87.5%; viability, T/C [28]: 53.8%; viability, T/C [29]: 39.4%; viability, T/C [30]: 114%; viability, T/C [31]: 119%; viability, T/C [32]: 102%; viability, T/C [33]: 99.3%; viability, T/C [34]: 65.5%; viability, T/C [35]: 59.5%
 |  |  |  |  | Nc1ccn(C2OC(CO)C(O)C2(F)F)c(=O)n1 (centres undefined) |  |  |  |  |  |  |  |  |  |  |  |  |  |  |  | viability, T/C (compound 0.0316 µM): 92.4% and 67.2% and 87.8%; viability, T/C (compound 0.1 µM): 73.3% and 58.7% and 72.8%; viability, T/C (compound 0.316 µM): 69.8% and 60.6% and 73.5%; viability, T/C (compound 1 µM): 63% and 53.5% and 70.8%; viability, T/C (compound 3.16 µM): 71.4% and 61.4% and 66.6%; viability, T/C (compound 10 µM): 73.7% and 62.2% and 66.3%; IC50 (curve of compound): > 10 µM
 |  |  |  |  | COc1cc(C2c3cc4c(cc3C(OC3OC5COC(C)OC5C(O)C3O)C3COC(=O)C23)OCO4)cc(OC)c1O (centres undefined) |  |  |  |  |  |  |  |  |  |  |  |  |  |  |  | viability, T/C (compound 0.0316 µM): 98.8% and 103% and 94.7%; viability, T/C (compound 0.1 µM): 105% and 103% and 102%; viability, T/C (compound 0.316 µM): 95.7% and 114% and 106%; viability, T/C (compound 1 µM): 94.6% and 100% and 98.3%; viability, T/C (compound 3.16 µM): 95.8% and 108% and 98.9%; viability, T/C (compound 10 µM): 80% and 91.7% and 92.8%; IC50 (curve of compound): > 10 µM
> 10 | > 10 | > 10 | > 10 | > 10 | CC1(C)CCC(CN2CCN(c3ccc(C(=O)NS(=O)(=O)c4ccc(NCC5CCOCC5)c([N+](=O)[O-])c4)c(Oc4cnc5[nH]ccc5c4)c3)CC2)=C(c2ccc(Cl)cc2)C1 + Cc1ccccc1N=Nc1ccc(NC(=O)c2ccnn2C)c(C)c1 | 91.9 | 92.9 | 93.9 | 94.7 | 95.7 | 94.9 | 97.5 | 81.8 | 89.8 | 88.4 | 99.6 | 99.2 | 90.1 | 91 | 93.8 | viability, T/C [10]: 96.1%; viability, T/C [11]: 94.3%; viability, T/C [16]: 87.5%; viability, T/C [17]: 81.6%; viability, T/C [22]: 89.1%; viability, T/C [23]: 78.3%; viability, T/C [27]: 85.6%; viability, T/C [28]: 75.5%; viability, T/C [29]: 81.8%; viability, T/C [30]: 84.8%; viability, T/C [31]: 85.2%; viability, T/C [32]: 90.1%; viability, T/C [33]: 80%; viability, T/C [34]: 104%; viability, T/C [35]: 82.1%
> 10 | > 10 | > 10 | > 10 | > 10 | COc1cc(Nc2ncc3c(n2)-c2ccc(Cl)cc2C(c2c(F)cccc2OC)=NC3)ccc1C(=O)O + Cc1cncc(-c2nc(NCCc3c[nH]c4ccccc34)c3ncn(C(C)C)c3n2)c1 | 94.2 | 103 | 84.6 | 99.8 | 97.7 | 85 | 94 | 85.1 | 99 | 95.2 | 95.9 | 86 | 107 | 98 | 96.1 | viability, T/C [10]: 93.7%; viability, T/C [11]: 91.8%; viability, T/C [16]: 85%; viability, T/C [17]: 78.9%; viability, T/C [22]: 95.3%; viability, T/C [23]: 82.4%; viability, T/C [27]: 107%; viability, T/C [28]: 90.1%; viability, T/C [29]: 98.9%; viability, T/C [30]: 119%; viability, T/C [31]: 126%; viability, T/C [32]: 101%; viability, T/C [33]: 76.8%; viability, T/C [34]: 79.4%; viability, T/C [35]: 85.8%
> 10 | > 10 | > 10 | > 10 | > 10 | CC1(C)CCC(CN2CCN(c3ccc(C(=O)NS(=O)(=O)c4ccc(NCC5CCOCC5)c([N+](=O)[O-])c4)c(Oc4cnc5[nH]ccc5c4)c3)CC2)=C(c2ccc(Cl)cc2)C1 + Cc1cncc(-c2nc(NCCc3c[nH]c4ccccc34)c3ncn(C(C)C)c3n2)c1 | 103 | 105 | 107 | 106 | 98.5 | 110 | 106 | 104 | 99.4 | 108 | 103 | 114 | 116 | 123 | 119 | viability, T/C [10]: 99.5%; viability, T/C [11]: 113%; viability, T/C [16]: 104%; viability, T/C [17]: 123%; viability, T/C [22]: 133%; viability, T/C [23]: 128%; viability, T/C [27]: 135%; viability, T/C [28]: 145%; viability, T/C [29]: 138%; viability, T/C [30]: 106%; viability, T/C [31]: 111%; viability, T/C [32]: 112%; viability, T/C [33]: 133%; viability, T/C [34]: 151%; viability, T/C [35]: 227%
9.26 | 7.72 | 9.6 | 8.29 | 7.34 | O=C(C=Cc1cccc(S(=O)(=O)Nc2ccccc2)c1)NO + CC(CO)NC(=O)c1cc(-c2ccc(Cl)cc2)nn(-c2cnn(C)c2)c1=O | 97.6 | 87.1 | 86.9 | 80.3 | 82.4 | 88.5 | 74.4 | 76.9 | 82.5 | 89 | 84 | 75.8 | 82.5 | 80 | 76.2 | viability, T/C [10]: 76.4%; viability, T/C [11]: 47.1%; viability, T/C [16]: 61.8%; viability, T/C [17]: 46.4%; viability, T/C [22]: 62.7%; viability, T/C [23]: 49.4%; viability, T/C [27]: 70.2%; viability, T/C [28]: 59.2%; viability, T/C [29]: 48.3%; viability, T/C [30]: 85.3%; viability, T/C [31]: 87.8%; viability, T/C [32]: 83.2%; viability, T/C [33]: 74.7%; viability, T/C [34]: 66.9%; viability, T/C [35]: 43.9%
> 1 | > 1 | > 1 | > 1 | > 1 | Nc1ncn(C2CC(O)C(CO)O2)c(=O)n1 (centres undefined) + Cc1cncc(-c2nc(NCCc3c[nH]c4ccccc34)c3ncn(C(C)C)c3n2)c1 | 104 | 95.1 | 92 | 96 | 93.5 | 96.3 | 94.8 | 94.4 | 98.5 | 93 | 106 | 93.7 | 104 | 100 | 103 | viability, T/C (second compound 0.1 µM, first compound 0.00316 µM): 105%; viability, T/C (second compound 0.1 µM, first compound 0.01 µM): 98.7%; viability, T/C (second compound 0.316 µM, first compound 0.00316 µM): 99.4%; viability, T/C (second compound 0.316 µM, first compound 0.01 µM): 99.8%; viability, T/C (second compound 1 µM, first compound 0.00316 µM): 109%; viability, T/C (second compound 1 µM, first compound 0.01 µM): 107%; viability, T/C (second compound 3.16 µM, first compound 0.00316 µM): 104%; viability, T/C (second compound 3.16 µM, first compound 0.01 µM): 108%; viability, T/C [27]: 98.4%; viability, T/C (second compound 10 µM, first compound 0.00316 µM): 113%; viability, T/C (second compound 10 µM, first compound 0.01 µM): 114%; viability, T/C [30]: 131%; viability, T/C [31]: 109%; viability, T/C [32]: 107%; viability, T/C [33]: 120%
